This note sets out measurements from patent US8476253B2, “Amide derivative” (Daiichi Sankyo Company, Limited, priority 2009, dated 2013).

Counter-ions that a name gives are not always drawn. Like-named read-outs stand apart in the source and are kept apart here.

For orientation: Ki means a dissociation constant, usually derived from enzyme kinetics or from competition with a known ligand.

One assay deals with T1, human NK2 receptor (Homo sapiens, UniProt P21452).
T1 construct: expressed in transfected cells; host or cells: COS cells
T1 sequence (P21452 1-398): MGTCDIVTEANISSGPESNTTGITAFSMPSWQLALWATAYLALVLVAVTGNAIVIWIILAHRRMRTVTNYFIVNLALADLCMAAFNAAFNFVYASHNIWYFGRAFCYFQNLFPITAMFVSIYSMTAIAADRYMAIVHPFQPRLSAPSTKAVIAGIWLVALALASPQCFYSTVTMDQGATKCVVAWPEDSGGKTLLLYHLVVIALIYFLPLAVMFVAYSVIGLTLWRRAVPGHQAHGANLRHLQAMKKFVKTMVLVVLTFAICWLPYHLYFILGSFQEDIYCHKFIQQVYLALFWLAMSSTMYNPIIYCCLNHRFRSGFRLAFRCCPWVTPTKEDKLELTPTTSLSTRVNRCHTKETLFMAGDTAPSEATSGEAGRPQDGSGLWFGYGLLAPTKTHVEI
In words: Test for binding to human NK2 receptor. How it is done: A solution of cryopreserved COS cells expressing human NK2 receptor was diluted with a buffer (50 mM tris-hydrochloride containing 0.04% of bovine serum albumin [BSA], pH 7.4) to obtain a concentration of 5.0×10^5 cells/mL and used as a crude membrane sample.
[^3H]SR 48968 (GE Healthcare Japan Corporation) was diluted with a mixture of 50 mM of tris-hydrochloride (pH 7.4), 6 mM of manganese chloride tetrahydrate, 800 μg/mL of BSA, 8 μg/mL of chymostatin, 8 μg/mL of leupeptin, 80 μg/mL of bacitracin, and 20 μg/mL of phosphoramidon. […] After the reaction, the membrane components were collected on a GF/B glass fiber filter paper (Whatman; Biomedical Research and Development Laboratories, Inc.) with an automated filtration system (Brandel; Biomedical Research and Development Laboratories, Inc.). The glass fiber filter paper was pretreated with a 0.1% polyethylenimine solution for 4 hours or longer to minimize non-specific binding. The filter collecting the membrane components was transferred to a small-size plastic vial containing 3 mL of Pico-Fluor, and the radioactivity was measured with a liquid scintillation counter (Tri-Carb 2900TR or 2300TR; Perkin Elmer).
The effect of binding to the NK2 receptor was calculated as the affinity (Ki) of the test substance for the NK2 receptor from a 50% binding dose (IC50) and the affinity (Kd) of [^3H]SR 48968 for the NK2 receptor.

The target of another assay is T2, human M3 receptor (Homo sapiens, UniProt P20309).
T2 construct: expressed in transfected cells; host or cells: CHO cells
T2 sequence (P20309 whole entry): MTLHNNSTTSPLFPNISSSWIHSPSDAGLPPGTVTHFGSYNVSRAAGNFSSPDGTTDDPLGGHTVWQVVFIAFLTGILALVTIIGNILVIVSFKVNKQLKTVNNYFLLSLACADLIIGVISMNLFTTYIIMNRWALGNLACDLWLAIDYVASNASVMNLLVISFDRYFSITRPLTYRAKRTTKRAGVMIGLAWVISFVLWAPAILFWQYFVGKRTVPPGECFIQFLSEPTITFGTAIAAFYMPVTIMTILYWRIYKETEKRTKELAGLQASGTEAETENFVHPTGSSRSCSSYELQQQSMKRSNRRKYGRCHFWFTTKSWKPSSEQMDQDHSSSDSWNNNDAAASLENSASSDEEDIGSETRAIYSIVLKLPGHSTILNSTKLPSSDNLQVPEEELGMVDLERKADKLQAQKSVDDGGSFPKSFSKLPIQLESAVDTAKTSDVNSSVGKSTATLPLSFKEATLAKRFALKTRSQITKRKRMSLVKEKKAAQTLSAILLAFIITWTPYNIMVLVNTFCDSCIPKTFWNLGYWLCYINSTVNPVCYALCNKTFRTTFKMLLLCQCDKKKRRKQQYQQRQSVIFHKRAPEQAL
The experiment in a line: Test for binding to human M3 receptor. How it is done:
A solution of cryopreserved CHO cells expressing human M3 receptor was diluted with a buffer (50 mM tris-hydrochloride containing 0.5 mM of EDTA, pH 7.4) to obtain 5.0×10^5 of cells/mL and used as a crude membrane sample.
[N-methyl-^3H]-(−)-Scopolamine methyl chloride (GE Healthcare Japan Corporation) was diluted with 50 mM of tris-hydrochloride containing 0.5 mM of EDTA (pH 7.4), a test substance and 250 μL of the crude membrane sample solution were added to 250 μL of the mixture, and the mixture was incubated at room temperature for 60 minutes. […] The glass fiber filter paper was pretreated with a 0.1% polyethylenimine solution for 4 hours or longer to minimize non-specific binding. The filter collecting membrane components was transferred to a small-size plastic vial containing 3 mL of Pico-Fluor, and the radioactivity was measured with a liquid scintillation counter (Tri-Carb 2900TR or 2300TR; Perkin Elmer).
The effect of binding to the M3 receptor was calculated as the affinity (Ki) of the test substance for the M3 receptor from a 50% binding dose (IC50) and the affinity (Kd) of [N-methyl-^3H]-(−)-Scopolamine methyl chloride for the M3 receptor.

A further assay concerns the target T3, substance P receptor (Cavia porcellus, UniProt P30547).
T3 construct: A preparation of a crude lung membrane sample was prepared; from tissue; host or cells: guinea-pig lung (crude membrane sample)
The experiment in a line: Test for binding to guinea-pig substance P receptor (crude lung membrane sample). The settings on record: crude guinea-pig lung membrane sample, [3H]substance P; Ki from IC50 and Kd; read-out: Ki. How it is done:
A preparation of a crude lung membrane sample was prepared, and a test for binding of a test substance to the sample was performed according to the method described in EP0336230A2.
The binding effect of the test substance to a substance P receptor was calculated as an affinity (Ki) of the test substance for the substance P receptor from a 50% binding concentration (IC50) and an affinity (Kd) of [^3H]substance P for the substance P receptor.

The subject of another assay is muscarine M3 receptor. The experiment in a line: Effect of suppressing methacholine-induced airway contraction (in vivo, intratracheal administration). As to conditions: guinea pigs, intratracheal administration 60 minutes before 30 μg/kg i.v. methacholine; AUC of increase in airway pressure over 10 minutes. Further details: species or system guinea pig. How it is done: Using healthy guinea pigs (body weight, 350 to 550 g; Hartley male guinea pigs), the effect of suppressing airway contraction induced by methacholine, which is a muscarine receptor agonist, was examined by a modified method of Konzett-Roessler (Naunyn-Schmiedebergs Arch. Exp. Pathol. Pharmakol. 195, 71 [1940]) using airway pressure as an indicator.
A tracheal cannula and a venous cannula were attached to a guinea pig anesthetized with pentobarbital (50 mg/mL of solution, 0.40 to 0.50 mL/body, subcutaneous administration). An arterial cannula filled with heparin-containing physiological saline (100 U/mL) was further attached, and blood pressure and heart rate were monitored via an amplifier and an instantaneous heart rate meter. Subsequently, gallamine (20 mg/body, intravenous administration) was administered to terminate spontaneous breathing, and then 10 mL/kg of positive pressure breathing (Ugo-Basile Biological Research Apparatus, Cat. No. 7025) was rapidly performed at 60 times/min. The airway pressure during artificial breathing was detected with a pressure transducer (TP-200T or TP-400T; Nihon Kohden Corporation) attached to a side branch of the tracheal cannula, amplified (AP-601G; Nihon Kohden Corporation), and recorded in a recorder. After the airway pressure, blood pressure, and heart rate were stabilized, 30 μg/kg of methacholine was intravenously administered from the venous cannula to induce airway contraction, and the airway pressure was measured for the following 10 minutes.
A test substance was dissolved in 5% glucose solution, and a 0.5 mL/kg solution was administered intratracheally with an intratracheal administration apparatus (model 1A-1B; Penn-Century, Inc.) 60 minutes before stimulation with methacholine.
The AUC of increase in the airway pressure over 10 minutes after administration of methacholine was measured as the intensity of methacholine-induced airway contraction and calculated as an ID50 value from the inhibition rate based on the value of the control group (a 5% glucose solution intratracheal administration group).

[1] abbreviates: COS cells expressing human NK2 receptor, [3H]SR 48968 1 nM, Ki from IC50 and Kd, read-out: Ki.
Where [2] appears, read: CHO cells expressing human M3 receptor, [N-methyl-3H]-(-)-Scopolamine methyl chloride 0.5 nM, Ki from IC50 and Kd, read-out: Ki.

T3 sequence (P30547 whole entry): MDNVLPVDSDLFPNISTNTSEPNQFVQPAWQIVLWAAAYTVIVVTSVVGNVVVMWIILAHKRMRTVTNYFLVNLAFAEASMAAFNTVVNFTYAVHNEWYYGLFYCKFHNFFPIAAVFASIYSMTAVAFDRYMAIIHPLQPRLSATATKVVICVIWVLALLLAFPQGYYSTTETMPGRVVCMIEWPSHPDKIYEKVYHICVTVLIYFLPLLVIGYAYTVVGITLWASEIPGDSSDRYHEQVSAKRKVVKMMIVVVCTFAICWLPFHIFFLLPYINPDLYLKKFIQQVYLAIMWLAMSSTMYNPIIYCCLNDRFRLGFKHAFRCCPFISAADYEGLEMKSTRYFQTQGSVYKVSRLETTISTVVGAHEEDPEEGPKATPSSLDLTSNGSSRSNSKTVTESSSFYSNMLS

On to `CN(CCN1CCC(OC(=O)Nc2ccccc2-c2ccccc2)CC1)C(=O)CCCCCNc1nc(CC(=O)N(C)CCCN(C)C(=O)CO[C@H]2Cc3ccccc3C23CCN(CC[C@@]2(c4ccc(F)cc4)CN(C(=O)c4cc(C(F)(F)F)cc(C(F)(F)F)c4)CO2)CC3)cs1` [Example 88, 1-{2-[{6-[(4-{2-[{3-[({[(2S)-1′-{2-[(5R)-3-[3,5-Bis(trifluoromethyl)benzoyl]-5-(4-fluorophenyl)-1,3-oxazolidin-5-yl]ethyl}-2,3-dihydrospiro[indene-1,4′-piperidin]-2-yl]oxy}acetyl)(methyl)amino]propyl}(methyl)amino]-2-oxoethyl}-1,3-thiazol-2-yl)amino]hexanoyl}(methyl)amino]ethyl}piperidin-4-yl biphenyl-2-ylcarbamate trihydrochloride], for which the Ki on human NK2 receptor amounted to 0.72 nM; on human M3 receptor it was 0.31 nM; at substance P receptor, 1.1 nM. This molecule also registered an ID50 with muscarine M3 receptor of 6.0 µg/kg.
With `CN(CCCCCC(=O)N(C)CCN1CCC(OC(=O)Nc2ccccc2-c2ccccc2)CC1)Cc1cccc(C(=O)N(C)CCCN(C)C(=O)CO[C@H]2Cc3ccccc3C23CCN(CC[C@@]2(c4ccc(F)cc4)CN(C(=O)c4cc(C(F)(F)F)cc(C(F)(F)F)c4)CO2)CC3)c1` [Example 41, 1-{2-[{6-[{3-[{3-[({[(2S)-1′-{2-[(5R)-3-[3,5-Bis(trifluoromethyl)benzoyl]-5-(4-fluorophenyl)-1,3-oxazolidin-5-yl]ethyl}-2,3-dihydrospiro[indene-1,4′-piperidin]-2-yl]oxy}acetyl)(methyl)amino]propyl}(methyl)carbamoyl]benzyl}(methyl)amino]hexanoyl}(methyl)amino]ethyl}piperidin-4-yl biphenyl-2-ylcarbamate trihydrochloride], the inhibition constant Ki came to 0.26 nM at human NK2 receptor, 1.4 nM on human M3 receptor and 0.96 nM at substance P receptor.
Consider `CN(CCN1CCC(OC(=O)Nc2ccccc2-c2ccccc2)CC1)C(=O)CCCCCNc1ccc(C(=O)N(C)CCCN(C)C(=O)CO[C@H]2Cc3ccccc3C23CCN(CC[C@@]2(c4ccc(F)cc4)CN(C(=O)c4cc(C(F)(F)F)cc(C(F)(F)F)c4)CO2)CC3)cc1F` [Example 13, 1-(2-{[6-({4-[{3-[({[(2S)-1′-{2-[(5R)-3-[3,5-Bis(trifluoromethyl)benzoyl]-5-(4-fluorophenyl)-1,3-oxazolidin-5-yl]ethyl}-2,3-dihydrospiro[indene-1,4′-piperidin]-2-yl]oxy}acetyl)(methyl)amino]propyl}(methyl)carbamoyl]-2-fluorophenyl}amino)hexanoyl](methyl)amino}ethyl)piperidin-4-yl biphenyl-2-ylcarbamate trihydrochloride], for which the values for the Ki at human NK2 receptor, at human M3 receptor and at substance P receptor were 0.65 nM, 1.2 nM and 2.6 nM, respectively.
Turning to `Cc1nc(N(C)CCCCCC(=O)N(C)CCN2CCC(OC(=O)Nc3ccccc3-c3ccccc3)CC2)sc1C(=O)N(C)CCN(C)C(=O)CO[C@H]1Cc2ccccc2C12CCN(CC[C@@]1(c3ccc(F)cc3)CN(C(=O)c3cc(C(F)(F)F)cc(C(F)(F)F)c3)CO1)CC2` [Example 108, 1-{2-[{6-[{5-[{2-[({[(2S)-1′-{2-[(5R)-3-[3,5-Bis(trifluoromethyl)benzoyl]-5-(4-fluorophenyl)-1,3-oxazolidin-5-yl]ethyl}-2,3-dihydrospiro[indene-1,4′-piperidin]-2-yl]oxy}acetyl)(methyl)amino]ethyl}(methyl)carbamoyl]-4-methyl-1,3-thiazol-2-yl}(methyl)amino]hexanoyl}(methyl)amino]ethyl}piperidin-4-yl biphenyl-2-ylcarbamate trihydrochloride], the values for the Ki on human NK2 receptor, on human M3 receptor and at substance P receptor were 0.79 nM, 3 nM and 1.3 nM, respectively.
Regarding `CN(CCN1CCC(OC(=O)Nc2ccccc2-c2ccccc2)CC1)C(=O)CCCC1CCN(c2ccc(C(=O)N(C)CCCN(C)C(=O)CO[C@H]3Cc4ccccc4C34CCN(CC[C@@]3(c5ccc(F)cc5)CN(C(=O)c5cc(C(F)(F)F)cc(C(F)(F)F)c5)CO3)CC4)cc2)CC1` [Example 66, 1-(2-{[4-(1-{4-[{3-[({[(2S)-1′-{2-[(5R)-3-[3,5-Bis(trifluoromethyl)benzoyl]-5-(4-fluorophenyl)-1,3-oxazolidin-5-yl]ethyl}-2,3-dihydrospiro[indene-1,4′-piperidin]-2-yl]oxy}acetyl)(methyl)amino]propyl}methyl)carbamoyl]phenyl}piperidin-4-yl)butanoyl](methyl)amino}ethyl)piperidin-4-yl biphenyl-2-ylcarbamate trihydrochloride], the results for the inhibition constant (Ki) on human NK2 receptor (setting [1]), at human M3 receptor (setting [2]) and on substance P receptor were 0.86 nM, 1.5 nM and 2.1 nM, respectively.
As to `CN(CCN1CCC(OC(=O)Nc2ccccc2-c2ccccc2)CC1)C(=O)CCCCCNCc1ccc(C(=O)N(C)CCCN(C)C(=O)CO[C@H]2Cc3ccccc3C23CCN(CC[C@@]2(c4ccc(F)cc4)CN(C(=O)c4cc(C(F)(F)F)cc(C(F)(F)F)c4)CO2)CC3)cc1` [Example 75, 1-(2-{[6-({4-[{3-[({[(2S)-1-{2-[(5R)-3-[3,5-Bis(trifluoromethyl)benzoyl]-5-(4-fluorophenyl)-1,3-oxazolidin-5-yl]ethyl}-2,3-dihydrospiro[indene-1,4′-piperidin]-2-yl]oxy}acetyl)(methyl)amino]propyl}(methyl)carbamoyl]benzyl}amino)hexanoyl](methyl)amino}ethyl)piperidin-4-yl biphenyl-2-ylcarbamate], the values for the inhibition constant Ki on human NK2 receptor (setting [1]), on human M3 receptor (setting [2]) and on substance P receptor were 0.25 nM, 0.52 nM and 1 nM, respectively.
